From patent publication US11999770B2, “Peptides and nanoparticle formulations thereof” (University of Bradford, priority 2016, dated 2024)
One block for each sequence: values may come before it.

What was measured:
MDA-MB-231 cells [1] = assay: Cytotoxicity / cell viability (MTT assay); type: cell-based, human; settings: for activity against the proliferation of MDA MB-231 triple negative breast cancer cells: dosed as nanoparticles
Experimental: Cytotoxicity of an optimised peptide NP formulation (F18) containing peptide of SEQ ID NO: 5 was measured by assessing cell viability (MTT assay). The MDA-MB-231 cells were seeded in 24-well plates (Nalgen Nunc International, Ochester, NY) at a density of 5×10^4 cells per well and incubated for 24 hours to allow for 60-70% confluency and sufficient adhesion. The cells were treated with different concentrations of the peptide-loaded NP, free peptide (SEQ ID NO: 5) and blank NP. After 24, 48, 72 and 96 hours, the treated cells were washed with 500 μl PBS, and 500 μl of 15% MTT dye solution in complete media added to each well. The plates were incubated at 37° C. and 5% CO2 for an additional 3 hours. The supernatant was then discarded, 500 μl DMSO added and the solution vigorously mixed. The optical density of each well was measured at 570 nm (reference wavelength 630 nm) in a microplate reader (Fluostar Omega, BMG Lab Tech GMBH, Germany). This experiment was performed in triplicate and repeated three times. Mean values±SD for each concentration was determined. Percentage cell viability was determined as the ratio of absorbance (570 nm) in treated cells relative to the absorbance in control cells (570 nm). The absorbance of the untreated cells was set at 100%. The IC50 was defined as the concentration of sample needed to reduce the signal by 50% relative to the control.

[2] = Isoelectric point of the peptide; type: physicochemical
MDA-MB231 migration = assay: MDA-MB231 migration; type: cell-based, human; settings: loaded nanoparticles
[3] = biological target: T1, RanGDP-RCC1 protein-protein interaction (Homo sapiens, UniProt P18754); assay: Ran activation assay (MDA MB-231 cell lysate, RanBP1 agarose beads); type: biochemical
T1 construct: endogenous in cells; host or cells: MDA MB-231 cell lysate
T1 sequence (P18754 2-421 limits assumed): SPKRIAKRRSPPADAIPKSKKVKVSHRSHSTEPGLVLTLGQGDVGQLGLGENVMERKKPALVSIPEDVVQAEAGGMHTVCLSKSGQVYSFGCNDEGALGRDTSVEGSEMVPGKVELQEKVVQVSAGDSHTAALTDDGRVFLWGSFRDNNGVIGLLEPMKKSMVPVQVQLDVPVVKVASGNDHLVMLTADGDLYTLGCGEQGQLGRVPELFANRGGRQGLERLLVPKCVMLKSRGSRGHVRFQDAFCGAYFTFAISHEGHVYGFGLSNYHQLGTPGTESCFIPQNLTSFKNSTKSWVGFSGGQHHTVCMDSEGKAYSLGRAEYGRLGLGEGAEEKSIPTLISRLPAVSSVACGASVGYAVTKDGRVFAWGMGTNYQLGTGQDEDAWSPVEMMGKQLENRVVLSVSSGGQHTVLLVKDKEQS
Experimental: Lane 1 is positive control for activated Ran complex & Lane 2, MDA MB-231 cell lysate, Lane 3 MDA MB-231 cell lysate loaded with GDP and incubated (negative control) with RanBP1 Agarose beads. Lane 4, MDA MB-231 cell lysate loaded with GTPyS (positive control) incubated with RanBP1 Agarose beads. Lane 5, MDA MB231 cell lysate treated by N-Terminal peptide, Lane 6, MDA MB-231 cell lysate loaded with GD and treated with N-terminal peptide SEQ ID NO: 5, Lane 7, MDA MB231 cell lysate loaded with GTPyS and treated with N-terminal peptide SEQ ID NO: 5 incubated with RanBP1 Agarose beads. […] It can therefore be seen that the N-terminal peptide SEQ ID NO: 5 disturbs the interaction between Ran-RCC1 by direct binding to RCC1.
In this figure, Lane 1 is positive control (activated Ran protein); Lane 2, MDA MB-231 cell lysate; Lane 3 MDA MB-231 cell lysate loaded with GDP and incubated (negative control) with RanBP1 Agarose beads; Lane 4, MDA MB-231 cell lysate loaded with GTPyS (positive control) incubated with RanBP1 Agarose beads; Lane 5, MDA MB-231 cell lysate treated by peptide of SEQ ID 5; Lane 6, MDA MB-231 cell lysate loaded with GD and treated with peptide of SEQ ID 5; and Lane 7, MDA MB-231 cell lysate loaded with GTPyS and treated with peptide of SEQ ID 5 incubated with RanBP1 Agarose beads.

MDA-MB-231 cells [4] = assay: Cell cycle analysis (PI flow cytometry); type: cell-based, human
Experimental: To determine the effect of peptide (SEQ ID NO: 5)-loaded NP on cell growth, cultured cells were treated with the same doses of free peptide and peptide-loaded NP as used in the cell viability assay. After 24 and 48 hours of treatment, cells were suspended in PBS and fixed by addition of 70% ice-cold methanol. Cells were treated by adding RNase (1.0 μg ml^−1) to the samples and re-suspending in propidium iodide (PI) stain (5.0 μg ml^−1). PI fluorescence intensity was determined using flow cytometry through a FL-2A filter at 585 nm. Flow-cytometric data were analysed using Cyflogic (v.1.2.1) software. Quantification of apoptotic cells was determined by flow cytometry as the percentage of cells in the sub-G1 region (hypodiploidy) in cell cycle analysis as previously described [PLoS ONE, 6 (2011) e23640].

A549 lung cancer cells = assay: A549 lung cancer cell viability; type: cell-based, human; settings: dosed as nanoparticles
[5] = biological target: T2, RanGDP-RCC1 protein-protein interaction (Homo sapiens, UniProt P18754); assay: AlphaScreen assay; type: binding; settings: in the absence of GTP
T2 sequence (P18754 1-421): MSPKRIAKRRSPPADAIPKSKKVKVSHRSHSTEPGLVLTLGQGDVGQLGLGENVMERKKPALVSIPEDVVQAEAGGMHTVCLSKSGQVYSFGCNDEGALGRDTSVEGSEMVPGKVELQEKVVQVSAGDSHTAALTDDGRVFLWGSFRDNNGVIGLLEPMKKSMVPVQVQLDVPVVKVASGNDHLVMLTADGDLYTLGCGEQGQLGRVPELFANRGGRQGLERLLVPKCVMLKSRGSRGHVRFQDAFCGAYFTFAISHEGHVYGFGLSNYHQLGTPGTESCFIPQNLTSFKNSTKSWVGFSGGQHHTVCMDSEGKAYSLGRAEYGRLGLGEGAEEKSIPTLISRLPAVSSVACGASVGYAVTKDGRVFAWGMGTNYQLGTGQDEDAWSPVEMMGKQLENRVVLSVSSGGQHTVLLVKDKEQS
Text: The direct effect of the inhibitor of SEQ ID NO: 5 on the RanGDP-RCC1 interaction was also studied by AlphaScreen™ assay. This assay employs bead-based chemistry used to study biomolecular interactions in a microplate format, the acronym ALPHA stands for Amplified Luminescent Proximity Homogeneous Assay. In brief, the system uses two photosensitive bead types, a first donor bead that can absorb light from an external light source and a second acceptor bead that can first absorb energy from the donor bead if the beads are in close proximity and then in turn emit light. The Ran protein was attached to the donor bead and the RCC1 protein was attached to the acceptor bead. In the absence of peptide inhibitor the interaction of Ran and RCC1 hold the beads in close proximity and the emission from the acceptor bead is detectable.

MDA-MB231 invasion = assay: MDA-MB231 invasion; type: cell-based, human; settings: loaded nanoparticles

inhibition of complex formation [5]: 45%
Sequence: CAQGEPQVQFK [SEQ ID NO: 5]
cytotoxic action (cell viability) (MDA-MB-231 cells [1]; 2, 4 and 8 μM, 24, 48, 72 and 96 hours): no significant cytotoxicity | activity against the proliferation of MDA MB-231 triple negative breast cancer cells (MDA-MB-231 cells [1]): significant activity | isoelectric point (pI) [2]: around 6.0 | effect on MDA-MB231 migration (MDA-MB231 migration): inhibitory effect | effect on Ran-GDP/RCC1 interaction (activated Ran pull-down) [3]: disturbs the interaction between Ran-GDP and RCC1 | growth rate of the cells (MDA-MB-231 cells [4]): not affected | activity against the proliferation of A549 lung cancer cells (A549 lung cancer cells): significant activity | effect on MDA-MB231 invasion (MDA-MB231 invasion): inhibitory effect

Sequence: CVDIKDRKVKAKS [SEQ ID NO: 6, Ran positions 124 to 135 with N-terminal Cys]
activity against the proliferation of MDA MB-231 triple negative breast cancer cells (MDA-MB-231 cells [1]): significant activity | activity against the proliferation of A549 lung cancer cells (A549 lung cancer cells): significant activity

Sequence: CQYEHDLEVAQTTALP [SEQ ID NO: 7, Ran positions 196 to 210 with N-terminal Cys]
activity against the proliferation of MDA MB-231 triple negative breast cancer cells (MDA-MB-231 cells [1]): significant activity | activity against the proliferation of A549 lung cancer cells (A549 lung cancer cells): significant activity
